Reference: publication PMC10687260, “1,3-Diphenylureido hydroxamate as a promising scaffold for generation of potent antimalarial histone deacetylase inhibitors” (Scientific Reports, 2023)

Experiments:
P. falciparum 3D7 = experiment: Antiplasmodial SYBR Green I proliferation assay, P. falciparum 3D7; assay type: cell-based, Plasmodium falciparum; details: Plasmodium falciparum, 3D7, 96 h, 96 h; values in brackets 95% confidence intervals; read-out: IC50 Pf3D7
Source text: Antiplasmodial activity against P. falciparum 3D7 (A, C and E) and P. falciparum Dd2 (B, D, F). […] Curves were plotted using non-linear regression based on means from three independent experiments measured in triplicate. Error bars indicate standard deviation, whose values are provided in the respective table.
Plasmodium falciparum culture and antiplasmodial activity. […] Development, parasitaemia, and morphology of parasites were monitored by light microscopy of thin blood smears stained according to the Romanowsky method (Panótico Rápido staining kit; Laborclin, Pinhais, Paraná, Brazil). […] Fresh 0^+ blood was generously provided by “Hospital Novo Atibaia” (Atibaia, SP, Brazil), and approved by the ethics committee at ICB-USP. The antiplasmodial effect of all compounds was validated against P. falciparum 3D7 strain conducting SYBR Green I (Invitrogen) drug assays as previously reported[30],[46] as a modification of the original procedure. […] Parasite proliferation was measured by the DNA load via fluorescence, using 100 μL of a lysis buffer with SYBR Green I (0.02% v/v) and incubated for 1 h at room temperature in the dark. […] Focal and gain adjustment was performed using the non-treated controls (highest expected fluorescence signal). Data was acquired via the CLARIOstar (V5.20) and MARS software, manually scaled to 0–100%, and plotted using GraphPad Prism (v9.5.2 for Windows, GraphPad Software, La Jolla California USA, www.graphpad.com). Non-treated parasites, the highest solvent concentration on parasites, CQ on parasites, and the highest drug concentration in the medium were used as controls for maximal growth, solvent control, positive biological control, and native drug fluorescence, respectively.

HepG2 cells = experiment: Cytotoxicity in human HepG2 cells (WST-1); assay type: cell-based; details: Homo sapiens, HepG2; 48 h, WST-1; read-out: IC50 HepG2
Experimental: Cytotoxicity in human HepG2 cells.[47] […] Cytotoxic effects of compounds were assessed using the cell proliferation reagent WST-1 (Roche; CELLPRO-RO) in a 96-well plate-based screening assay. HepG2 cells were seeded at 10^4 cells/well (100 μL) in 96-well flat-bottom plates (Sarstedt) the night before the experiment to allow attachment of cells. The next day, two-fold serial dilutions of compounds were prepared in fresh medium in an extra plate, and the medium of cells was replaced by the medium containing the compound dilutions. Non-treated cells (max. proliferation), cells treated with the maximal solvent concentration (DMSO; solvent control), and medium with the maximal compound concentration (native absorbance) used as controls. […] Subsequently, 10 μL WST-1 was added to each well and plates were incubated for additional 4 h under standard conditions. WST-1 is a tetrazolium salt and is metabolised by the mitochondrial succinate-tetrazolium-reductase system of living cells and forms formazan, whose absorbance was measured at 450 nm. Absorbance at 630 nm was assessed to check for protein and precipitation background. Both measurements were acquired via the CLARIOstar (V5.20) and MARS software, manually scaled to 0–100%, and plotted with GraphPad Prism (version 9.5.2 for Windows, GraphPad Software, La Jolla California USA).

human HDAC1 = target: T1, human HDAC1 (Homo sapiens, UniProt Q13547); experiment: In vitro HDAC enzymatic assay, HDAC1; assay type: biochemical; details: mean ± SD
T1 construct: purchased ENZO Life Sciences AG (Lausen, CH)
T1 sequence (Q13547 whole entry): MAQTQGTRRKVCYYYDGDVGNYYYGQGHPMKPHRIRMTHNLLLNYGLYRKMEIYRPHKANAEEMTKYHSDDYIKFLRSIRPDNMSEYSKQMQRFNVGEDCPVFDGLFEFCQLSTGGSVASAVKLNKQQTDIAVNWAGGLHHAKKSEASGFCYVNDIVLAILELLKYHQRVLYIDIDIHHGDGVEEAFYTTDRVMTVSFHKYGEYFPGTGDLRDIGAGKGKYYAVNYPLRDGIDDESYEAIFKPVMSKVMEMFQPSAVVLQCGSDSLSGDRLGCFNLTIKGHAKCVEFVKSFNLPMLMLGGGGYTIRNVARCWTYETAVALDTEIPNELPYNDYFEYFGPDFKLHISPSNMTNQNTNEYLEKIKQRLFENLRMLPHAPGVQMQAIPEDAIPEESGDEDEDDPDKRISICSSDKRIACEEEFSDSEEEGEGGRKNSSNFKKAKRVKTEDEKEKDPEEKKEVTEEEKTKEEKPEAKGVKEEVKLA
Experimental: (§1) In vitro HDAC enzymatic assays. Recombinant human HDAC1 and HDAC6 were purchased from ENZO Life Sciences AG (Lausen, CH) whereas HDAC8 was produced as described before. In vitro testing of the inhibitors in an enzymatic assay was carried out as described in previous publications[32],[33]. For HDAC1 a fluorogenic peptide derived from p53 (Ac-RHKK(Acetyl)-AMC) was used. For HDAC6, the substrate (Abz-SRGGK(thio-TFA)FFRR-NH2) was used as described before.

human HDAC6 = target: T2, human HDAC6 (Homo sapiens, UniProt Q9UBN7); experiment: In vitro HDAC enzymatic assay, HDAC6; assay type: biochemical; details: for IC50: mean ± SD; for HDAC1/6 SI: ratio HsHDAC1 IC50/HsHDAC6 IC50
T2 construct: purchased ENZO Life Sciences AG (Lausen, CH)
T2 sequence (Q9UBN7 1-1215): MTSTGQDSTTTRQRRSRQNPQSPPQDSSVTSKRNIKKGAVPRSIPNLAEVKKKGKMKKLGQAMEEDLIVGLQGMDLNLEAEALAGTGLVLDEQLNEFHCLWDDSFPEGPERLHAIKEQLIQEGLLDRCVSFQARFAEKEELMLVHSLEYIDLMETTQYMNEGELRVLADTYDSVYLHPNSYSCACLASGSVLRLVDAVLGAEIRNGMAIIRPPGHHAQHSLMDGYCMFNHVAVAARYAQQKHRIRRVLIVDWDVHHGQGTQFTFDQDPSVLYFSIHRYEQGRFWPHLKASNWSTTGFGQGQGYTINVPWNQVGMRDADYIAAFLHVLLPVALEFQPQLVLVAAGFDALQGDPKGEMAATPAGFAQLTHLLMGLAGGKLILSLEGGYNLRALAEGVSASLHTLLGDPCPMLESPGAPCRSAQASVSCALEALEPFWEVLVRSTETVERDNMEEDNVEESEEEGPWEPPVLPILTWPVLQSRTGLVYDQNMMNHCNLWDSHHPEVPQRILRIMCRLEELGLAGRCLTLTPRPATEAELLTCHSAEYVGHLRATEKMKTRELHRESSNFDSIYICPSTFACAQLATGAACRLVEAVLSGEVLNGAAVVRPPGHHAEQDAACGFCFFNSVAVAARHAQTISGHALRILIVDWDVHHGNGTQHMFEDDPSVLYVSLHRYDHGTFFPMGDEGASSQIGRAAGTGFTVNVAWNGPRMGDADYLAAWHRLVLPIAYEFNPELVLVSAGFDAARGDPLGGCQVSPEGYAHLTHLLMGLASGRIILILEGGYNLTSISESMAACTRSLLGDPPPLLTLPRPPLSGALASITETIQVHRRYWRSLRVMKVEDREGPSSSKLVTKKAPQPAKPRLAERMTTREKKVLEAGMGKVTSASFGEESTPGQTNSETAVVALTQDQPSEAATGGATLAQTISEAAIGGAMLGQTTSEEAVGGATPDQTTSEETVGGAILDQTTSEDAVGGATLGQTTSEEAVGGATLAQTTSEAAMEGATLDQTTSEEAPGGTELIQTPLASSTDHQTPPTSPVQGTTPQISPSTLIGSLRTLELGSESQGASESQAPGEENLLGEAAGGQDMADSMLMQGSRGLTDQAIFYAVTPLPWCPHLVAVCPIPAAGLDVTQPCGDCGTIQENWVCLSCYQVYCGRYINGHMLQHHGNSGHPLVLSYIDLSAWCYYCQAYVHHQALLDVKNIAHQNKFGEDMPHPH
Experimental: as §1

HDAC8 = target: T3, HDAC8 (Homo sapiens, UniProt Q9BY41); experiment: In vitro HDAC enzymatic assay, HDAC8; assay type: biochemical; details: mean ± SD
T3 construct: made in house
T3 sequence (Q9BY41 1-377): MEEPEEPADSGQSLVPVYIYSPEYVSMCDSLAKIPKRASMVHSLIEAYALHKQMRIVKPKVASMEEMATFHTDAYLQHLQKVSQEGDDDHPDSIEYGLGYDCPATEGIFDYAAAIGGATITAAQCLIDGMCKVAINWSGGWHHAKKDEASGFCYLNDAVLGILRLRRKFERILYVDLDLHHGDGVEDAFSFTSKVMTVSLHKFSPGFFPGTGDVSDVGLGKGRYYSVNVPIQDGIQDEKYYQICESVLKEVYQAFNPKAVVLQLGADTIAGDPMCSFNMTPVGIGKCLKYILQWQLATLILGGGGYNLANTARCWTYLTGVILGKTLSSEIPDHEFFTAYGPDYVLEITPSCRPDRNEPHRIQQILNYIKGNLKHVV
Experimental: as §1

Jurkat = test system: Jurkat; set-up: method as in PMID 33668008; details: Fig. 1A; cited from earlier work
Namalwa = test system: Namalwa; set-up: method as in PMID 33668008; details: Fig. 1A; cited from earlier work
[1] = set-up: method as in PMID 33046062; details: cited from earlier work
P. falciparum culture = test system: P. falciparum culture; set-up: method as in PMID 33046062; details: cited from earlier work
CYP1A2 = target: T4, CYP1A2 (Homo sapiens, UniProt P05177); experiment: CYP450 inhibition in human liver microsomes, 1A2; assay type: in vitro ADME; details: 10 µM
T4 construct: 10 μM compound was incubated with human liver microsomes and selective marker substrates; from tissue; host or cells: human liver microsomes
T4 sequence (P05177 1-516): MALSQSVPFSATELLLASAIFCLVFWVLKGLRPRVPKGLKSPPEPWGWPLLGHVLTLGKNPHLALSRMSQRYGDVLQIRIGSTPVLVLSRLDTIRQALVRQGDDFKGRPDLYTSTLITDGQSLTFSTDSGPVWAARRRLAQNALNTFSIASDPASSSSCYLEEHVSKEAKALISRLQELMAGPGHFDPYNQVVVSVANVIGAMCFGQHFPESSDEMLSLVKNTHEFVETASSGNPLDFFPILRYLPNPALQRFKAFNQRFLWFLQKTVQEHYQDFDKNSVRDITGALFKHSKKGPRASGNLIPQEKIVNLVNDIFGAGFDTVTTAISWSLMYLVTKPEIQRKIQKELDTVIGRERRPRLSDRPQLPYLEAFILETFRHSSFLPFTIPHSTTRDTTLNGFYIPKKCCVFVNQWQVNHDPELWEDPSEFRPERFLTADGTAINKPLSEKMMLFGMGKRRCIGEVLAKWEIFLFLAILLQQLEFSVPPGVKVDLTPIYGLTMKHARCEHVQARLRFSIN

CYP450 2C9 = target: T5, CYP450 2C9 (Homo sapiens, UniProt P11712); experiment: CYP450 inhibition in human liver microsomes, 2C9; assay type: in vitro ADME; details: 10 µM
T5 construct: 10 μM compound was incubated with human liver microsomes and selective marker substrates; from tissue; host or cells: human liver microsomes
T5 sequence (P11712 whole entry): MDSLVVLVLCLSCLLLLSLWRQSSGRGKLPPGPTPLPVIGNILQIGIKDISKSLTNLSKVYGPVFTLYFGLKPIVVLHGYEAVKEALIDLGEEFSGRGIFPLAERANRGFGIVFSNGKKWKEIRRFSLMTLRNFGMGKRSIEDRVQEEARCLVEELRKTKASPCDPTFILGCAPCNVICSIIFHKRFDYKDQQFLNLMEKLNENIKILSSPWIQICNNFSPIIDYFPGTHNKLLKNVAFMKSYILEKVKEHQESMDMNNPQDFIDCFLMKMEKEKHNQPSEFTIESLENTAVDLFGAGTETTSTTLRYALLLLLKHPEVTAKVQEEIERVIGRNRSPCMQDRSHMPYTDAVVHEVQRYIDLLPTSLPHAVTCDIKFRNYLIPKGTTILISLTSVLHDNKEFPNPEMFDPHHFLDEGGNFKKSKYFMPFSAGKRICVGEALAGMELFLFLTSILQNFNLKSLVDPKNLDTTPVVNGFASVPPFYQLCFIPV

CYP450 2D6 = target: T6, CYP450 2D6 (Homo sapiens, UniProt P10635); experiment: CYP450 inhibition in human liver microsomes, 2D6; assay type: in vitro ADME; details: 10 µM
T6 construct: 10 μM compound was incubated with human liver microsomes and selective marker substrates; from tissue; host or cells: human liver microsomes
T6 sequence (P10635 whole entry): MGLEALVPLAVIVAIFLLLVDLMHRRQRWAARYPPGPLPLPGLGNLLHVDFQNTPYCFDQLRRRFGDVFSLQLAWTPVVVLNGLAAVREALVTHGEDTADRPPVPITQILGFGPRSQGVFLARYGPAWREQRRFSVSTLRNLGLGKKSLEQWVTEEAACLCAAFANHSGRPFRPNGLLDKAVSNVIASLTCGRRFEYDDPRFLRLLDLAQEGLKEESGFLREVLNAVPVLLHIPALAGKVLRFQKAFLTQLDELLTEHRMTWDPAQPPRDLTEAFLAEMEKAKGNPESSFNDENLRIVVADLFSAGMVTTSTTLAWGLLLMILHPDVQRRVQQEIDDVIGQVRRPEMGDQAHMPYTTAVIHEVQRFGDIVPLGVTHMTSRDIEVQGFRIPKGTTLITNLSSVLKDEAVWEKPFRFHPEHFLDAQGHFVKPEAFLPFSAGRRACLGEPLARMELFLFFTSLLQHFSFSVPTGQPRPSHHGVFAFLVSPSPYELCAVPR

CYP450 3A4 = CYP450 3A4 (Homo sapiens, UniProt P08684); experiment: CYP450 inhibition in human liver microsomes, 3A4
CYP450 3A4, sequence (P08684 whole entry): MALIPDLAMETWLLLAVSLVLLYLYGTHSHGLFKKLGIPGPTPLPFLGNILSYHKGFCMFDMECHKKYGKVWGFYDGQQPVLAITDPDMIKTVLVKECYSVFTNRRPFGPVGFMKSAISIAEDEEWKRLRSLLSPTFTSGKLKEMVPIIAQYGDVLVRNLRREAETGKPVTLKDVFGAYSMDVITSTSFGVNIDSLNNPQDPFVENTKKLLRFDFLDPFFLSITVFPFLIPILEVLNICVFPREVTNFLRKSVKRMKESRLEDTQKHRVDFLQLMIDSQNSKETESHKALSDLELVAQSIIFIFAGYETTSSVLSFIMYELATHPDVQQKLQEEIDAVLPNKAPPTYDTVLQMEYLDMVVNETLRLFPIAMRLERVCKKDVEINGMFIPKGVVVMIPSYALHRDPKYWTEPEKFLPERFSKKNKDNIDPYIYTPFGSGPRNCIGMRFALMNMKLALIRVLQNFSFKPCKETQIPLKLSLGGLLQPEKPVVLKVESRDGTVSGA
Experimental: DMPK evaluation. […] At 0, 5, 10, 20, 40, and 60 min time points, aliquots were removed and acetonitrile was added to quench the reactions and precipitate the proteins. […] After a 10 min incubation, the reaction was terminated and the per cent inhibition was determined.

Row | Structure (SMILES) | IC50 (P. falciparum 3D7) [µM] | IC50 (HepG2 cells) [µM] | IC50 (human HDAC1) [µM] | IC50 (human HDAC6) [µM] | HDAC1/6 SI (human HDAC6) | IC50 (HDAC8) [µM] | melting point | IC50 (Jurkat) [µM] | IC50 (Namalwa) [µM] | Half-life t1/2 [1] [h] | IC50 against P. falciparum culture (P. falciparum culture) | CYP450% inhibition @ 10 µM 1A2 (CYP1A2) | CYP450% inhibition @ 10 µM 2C9 (CYP450 2C9) [%] | CYP450% inhibition @ 10 µM 2D6 (CYP450 2D6) | CYP450% inhibition @ 10 µM 3A4 (CYP450 3A4)
1 | O=C(/C=C/c1ccc(NC(=O)Nc2ccccc2)cc1)NO [Compound 6a, (E)-N-hydroxy-3-(4-(3-phenylureido)phenyl)acrylamide] | 1.72 | 22.9 | 1.35 ± 0.0642 | 0.0124 ± 0.0007 | 109 | 0.0951 ± 0.0046 | 202 to 204 °C | 0.16 | 0.3 |  |  |  |  |  | 
2 | O=C(CCc1ccc(NC(=O)Nc2ccccc2)cc1)NO [Compound 7a, N-hydroxy-3-(4-(3-phenylureido)phenyl)propanamide] | 4.57 | > 50 | 4.89 ± 0.21 | 0.152 ± 0.0116 | 32 | 0.462 ± 0.0276 | 304 °C (dec.) | 1.59 | 0.78 |  |  |  |  |  | 
3 | Cl.O=C(NO)c1ccc(Cn2cc(-c3ccc(CN4CCCC4)cc3)nn2)cc1 [FNDR-20123] |  |  |  |  |  |  |  |  |  | 2 to 9.21 | low nanomolar range |  |  |  | 
4 | Nc1ccc(S(=O)(=O)Nc2ccnn2-c2ccccc2)cc1 [Sulfaphenazole, reference compound] |  |  |  |  |  |  |  |  |  |  |  | * (Inhibition < 10%) | 94 | * (Inhibition < 10%) | * (Inhibition < 10%)
